# Data as given in paper PMC7771553 (Journal of medicinal chemistry, 2017).
# “Also recorded” adds a separate entry of the source. Like-named read-outs stand apart in the source and are kept apart here.
# What was measured:
# [1] = Parallel artificial membrane permeability assay; format: in vitro ADME; conditions: PAMPA
# MDA-MB-231 cells [2] = conditions: for dose dependence of the cellular uptake: 10% FBS (1 and 2) or 5% FBS (3 and 4); for intracellular concentration relative to the input concentration: 24 h, volume of one million cells about 5.5 μL; for incubation time to maximum intracellular concentration: MDA-MB-231 cells; for intracellular moles relative to that of 4: 5% FBS
# bromodomains = conditions: cited from earlier work
# MDA-MB-231 cells [3] = format: in vitro ADME; conditions: for nonspecific binding, 4 °C incubation (decrease of intracellular concentration): 6 h, compared with direct solvent extraction
# [4] = Cell-absent control: nonspecific binding with the cell culture plate; format: in vitro ADME; conditions: input 10, 20, 2, 20 μM for 1–4
# MDA-MB-231 cells [5] = conditions: MDA-MB-231, 24 h; input 10, 20, 2, 20 μM for 1–4
# [6] = Stability in DMEM media with or without 10% FBS; format: physicochemical; conditions: 72 h, negligible difference between samples with and without serum
SMILES,dose dependence of the cellular uptake (MDA-MB-231 cells [2]; 6 h),inhibitory activities in cell-based NanoBRET assays (bromodomains),"nonspecific binding, 4 °C incubation (decrease of intracellular concentration) (MDA-MB-231 cells [3]) [%]","nonspecific binding to the plates, percent of input concentration [4] [%]","intracellular concentration relative to the input concentration (MDA-MB-231 cells [2]; input 10, 20, 2, 20 μM for 1–4)",incubation time to maximum intracellular concentration (MDA-MB-231 cells [2]) [h],further results
"CC(=O)c1cc(-c2cc(C(=O)NC3CC3)ccc2C)c2ncccn12 [Compound 1, TP-472, reference compound]",first order,submicromolar,77,1,–,–,permeability through the artificial membrane [1]: good permeability
"Cc1cc2c(cc1N1C(=O)c3cccc4c(CCCO)ccc(c34)C1=O)n(C)c(=O)n2C [Compound 2, BAY-299, reference compound]",first order,submicromolar,–,–,–,–,"cellular uptake (percent of the compound accumulated in the cells) (MDA-MB-231 cells [5]): < 1%; increase in inhibitor cellular uptake (MDA-MB-231 cells [2]; 10-time increase in the input concentration (20–200 μM), 6 h): 13 times"
Cl.Cl.O=C(Nc1ccc(O[C@H]2CCNC2)c(-c2ccc(F)cc2)c1)c1ccc(O[C@H]2CCNC2)c(-c2ccc(F)c(F)c2)c1 [Compound 3],logarithmic pattern (saturation kinetics),–,15,–,about 600 times,3 to 6,"cell permeability relative to 4 (MDA-MB-231 cells [2]; equal input concentrations compared (Figure 6)): 1.7 times; intracellular moles relative to that of 4 (MDA-MB-231 cells [2]; input concentration 2 μM, 6 h): 1.9 times; intracellular moles relative to that of 4 (MDA-MB-231 cells [2]; input concentration 20 μM, 6 h): 1.5 times"
Cl.Cl.O=C(c1cc(F)cc(N2CCNCC2)c1)N1CCN(C(=O)c2ccc(O[C@H]3CCNC3)c(C3CCCCC3)c2)CC1 [Compound 4],plateaued when the input concentration was increased from 20 to 200 μM; also recorded: saturated at input concentrations >20 μM,–,4,1,~65 times,3 to 6,"rate of decrease of intracellular moles (MDA-MB-231 cells [2]; input 20 μM, over 72 h, first order): about 85.5 ± 8.2 pmol/(million cells × h); time dependence of intracellular moles (metabolic stability in cells) (MDA-MB-231 cells [2]; over 72 h, input 10, 20, 2, 20 μM for 1–4): less stable; compound remaining (percent of the initial concentration) [6]: about 85%"
CCOC(=O)CCCn1c2ccccc2c2nc3nonc3nc21 [Compound 8],–,–,–,–,–,–,cell-bound inhibitors at 4 °C (MDA-MB-231 cells [3]): little or no nonspecific binding
